Converted amounts (≈) assume the structure as drawn. Like-named read-outs stand apart in the source and are kept apart here.
What was measured:
S. lutea UC-130 = test: agar diffusion (dipped disc) assay, zone of inhibition, S. lutea UC-130; conditions: for zone of inhibition at 1000 µg/mL: Micrococcus luteus
S. aureus UC-76 = test: MIC, microplate broth-dilution, S. aureus UC-76; conditions: Sensitive strain; BHI broth
S. aureus UC-746 = test: MIC, microplate broth-dilution, S. aureus UC-746; conditions: Resistant to tetracycline; BHI broth
S. aureus UC 80 = test: agar diffusion (dipped disc) assay, zone of inhibition, S. aureus UC 80; conditions: 1 mg./ml. methanolic solution, 12.7 mm paper disc, 16 hours; NZ = no zone
S. aureus UC-570 = test: MIC, microplate broth-dilution, S. aureus UC-570; conditions: Sensitive strain; BHI broth
[1] = solubility remark in the MIC test; conditions: in place of MIC values

Row | Compound | MIC S. aureus UC-76 (S. aureus UC-76) | Agar Diffusion S. aureus UC 80 (inhibition zone) (S. aureus UC 80) | insoluble [1] | also measured
1 | 9-O--3-Furoyl- [U-61,461] | 0.50 µg/mL | 35 |  | Agar Diffusion S. lutea UC-130 (inhibition zone) (S. lutea UC-130; 1 mg./ml. methanolic solution, 12.7 mm paper disc, 16 hours, NZ = no zone): 41; MIC S. aureus UC-746 (S. aureus UC-746): 0.50 µg/mL; MIC S. aureus UC-570 (S. aureus UC-570): 0.25 µg/mL
2 | COC1CC2C=CC3C4OC2(C(C)=CC(C)C(C(C)O)OC1=O)C3C(O)C(C)C4OC(=O)c1ccccc1 (stereo not drawn) [9-O--benzoyl-, 9-O-benzoyl-nodusmicin] |  |  | insoluble | 
3 | COC1CC2C=CC3C4OC2(C(C)=CC(C)C(C(C)OC(=O)c2ccccc2)OC1=O)C3C(O)C(C)C4O (stereo not drawn) [18-O--benzoyl-, 18-O-benzoylnodusmicin] |  |  |  | zone of inhibition at 1000 µg/mL (S. lutea UC-130; UC130, 16 h, read-out: Agar Diffusion S. lutea UC-130 (inhibition zone)): 24 mm; zone of inhibition at 1000 µg/mL (S. lutea UC-130; UC130, read-out: zone of inhibition, S. lutea): 24 mm
4 | COC1CC2C=CC3C4OC2(C(C)=CC(C)C(C(C)O)OC1=O)C3C(O)C(C)C4OC(=O)c1ccc[nH]1 (stereo not drawn) [U-59,760, 9-O-pyrrole-2-carbonyl ester of nodusmicin, reference compound] | 0.125 µg/mL (≈ 0.242 µM) | 38 |  | 
5 | COC1CC2C=CC3C4OC2(C(C)=CC(C)C(C(C)OC(=O)c2ccc[nH]2)OC1=O)C3C(O)C(C)C4OC(=O)c1ccc[nH]1 (stereo not drawn) [U-60,908, 9, 18-O--Dipyrrole-2-carbonyl-] |  |  | insoluble | 
6 | COC1CC2C=CC3C4OC2(C(C)=CC(C)C(C(C)O)OC1=O)C3C(O)C(C)C4OC(=O)c1cc2ccccc2[nH]1 (stereo not drawn) [U-61,273, 9-O--Indole-2-carbonyl-] |  |  | insoluble | 

From patent US4588817A, “Antibiotic nodusmicins” (priority 1984, dated 1986)
